We go through five compounds from paper PMC5761851, “Application of a phenotypic drug discovery strategy to identify biological and chemical starting points for inhibition of TSLP production in lung epithelial cells” (PLoS ONE, 2018).

Where “and” joins values, the source holds several entries; their conditions need not be identical. Equal entries are not always repeated. Where two headings read alike, the source gives them in different places.

The subject of assay [1] is TSLP mRNA levels in NHBE cells. Nature of the assay: TSLP mRNA real-time PCR (qPCR) in NHBE cells. Type of assay: cell-based, human. More on the design: TSLP mRNA upregulation (% versus control) / % Inhibition of mRNA: dose or concentration left out as unconfirmed. Conditions: for % Inhibition of mRNA at [4 μM] ± SD: NHBE donor #1, 6 h stimulation; for % Inhibition of mRNA: individual values, donor #1.

Assay [2] concerns the target T1, Pyk2 (Homo sapiens, UniProt Q14289).
T1 construct: purchased Eurofins Pharma Discovery Services (KinaseProfiler; Cerep BioPrint panel)
Nature of the assay: kinase selectivity panel. Type of assay: biochemical. As to conditions: read-out: percentage of control activity (POC), Pyk2. An outline of the steps:
(§1)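 First, 125 representative kinases were exposed to 10 μM compound in duplicate; next, selected activities were titrated over 9 concentrations in duplicate, and IC50 values were calculated.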

In assay [3] the target is T2, Yes (Homo sapiens, UniProt P07947).
T2 construct: Eurofins Pharma Discovery Services (contract assay service)
Nature of the assay: kinase selectivity panel. In kind it is biochemical. Conditions: for remaining activity at 10 µM: read-out: percentage of control activity (POC), Yes. The method in brief:
as §1

The target in assay [4] is T3, NLK (Homo sapiens, UniProt Q9UBE8).
T3 construct: purchased Eurofins Pharma Discovery Services (KinaseProfiler; Cerep BioPrint panel)
T3 sequence (Q9UBE8 1-527): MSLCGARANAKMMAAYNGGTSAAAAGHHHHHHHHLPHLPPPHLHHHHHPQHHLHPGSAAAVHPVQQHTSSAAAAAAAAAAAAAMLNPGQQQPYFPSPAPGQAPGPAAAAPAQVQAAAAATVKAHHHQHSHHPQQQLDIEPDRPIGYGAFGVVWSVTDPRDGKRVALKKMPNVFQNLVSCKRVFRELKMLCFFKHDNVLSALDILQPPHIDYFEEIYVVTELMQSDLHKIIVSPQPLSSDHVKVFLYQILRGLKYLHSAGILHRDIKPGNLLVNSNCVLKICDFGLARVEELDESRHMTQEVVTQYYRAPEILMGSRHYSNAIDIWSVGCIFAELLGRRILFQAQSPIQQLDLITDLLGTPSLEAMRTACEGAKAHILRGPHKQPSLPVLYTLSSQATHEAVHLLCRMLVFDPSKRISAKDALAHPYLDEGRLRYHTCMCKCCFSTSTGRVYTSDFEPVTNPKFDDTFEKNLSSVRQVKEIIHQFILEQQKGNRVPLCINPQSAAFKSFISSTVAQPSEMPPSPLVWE
Nature of the assay: kinase selectivity panel. In kind it is biochemical. As to conditions: read-out: percentage of control activity (POC), NLK. An outline of the steps:
as §1

Assay [5] deals with T4, PDK1 (Homo sapiens, UniProt O15530).
T4 construct: purchased Eurofins Pharma Discovery Services (KinaseProfiler; Cerep BioPrint panel)
T4 sequence (O15530 1-556): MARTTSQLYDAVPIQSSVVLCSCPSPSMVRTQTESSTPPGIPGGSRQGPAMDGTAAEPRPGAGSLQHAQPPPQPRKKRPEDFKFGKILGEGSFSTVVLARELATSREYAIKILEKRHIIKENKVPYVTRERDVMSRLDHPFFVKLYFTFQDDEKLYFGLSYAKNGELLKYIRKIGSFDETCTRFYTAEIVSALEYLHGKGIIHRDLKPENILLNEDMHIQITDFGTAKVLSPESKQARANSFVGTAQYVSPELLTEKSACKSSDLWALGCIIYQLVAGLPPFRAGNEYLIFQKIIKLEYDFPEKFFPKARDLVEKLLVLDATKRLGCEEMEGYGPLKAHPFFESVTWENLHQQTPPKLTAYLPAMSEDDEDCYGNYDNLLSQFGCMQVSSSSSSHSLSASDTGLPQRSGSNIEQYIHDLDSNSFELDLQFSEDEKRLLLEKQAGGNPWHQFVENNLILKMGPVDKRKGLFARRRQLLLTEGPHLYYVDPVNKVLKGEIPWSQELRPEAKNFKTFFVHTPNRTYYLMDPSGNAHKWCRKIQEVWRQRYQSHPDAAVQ
Nature of the assay: kinase selectivity panel. Type of assay: biochemical. As to conditions: read-out: percentage of control activity (POC), PDK1. An outline of the steps:
as §1

In assay [6] the target is T5, IKKα (Homo sapiens, UniProt O15111).
T5 construct: purchased Eurofins Pharma Discovery Services (KinaseProfiler; Cerep BioPrint panel)
T5 sequence (O15111 1-745): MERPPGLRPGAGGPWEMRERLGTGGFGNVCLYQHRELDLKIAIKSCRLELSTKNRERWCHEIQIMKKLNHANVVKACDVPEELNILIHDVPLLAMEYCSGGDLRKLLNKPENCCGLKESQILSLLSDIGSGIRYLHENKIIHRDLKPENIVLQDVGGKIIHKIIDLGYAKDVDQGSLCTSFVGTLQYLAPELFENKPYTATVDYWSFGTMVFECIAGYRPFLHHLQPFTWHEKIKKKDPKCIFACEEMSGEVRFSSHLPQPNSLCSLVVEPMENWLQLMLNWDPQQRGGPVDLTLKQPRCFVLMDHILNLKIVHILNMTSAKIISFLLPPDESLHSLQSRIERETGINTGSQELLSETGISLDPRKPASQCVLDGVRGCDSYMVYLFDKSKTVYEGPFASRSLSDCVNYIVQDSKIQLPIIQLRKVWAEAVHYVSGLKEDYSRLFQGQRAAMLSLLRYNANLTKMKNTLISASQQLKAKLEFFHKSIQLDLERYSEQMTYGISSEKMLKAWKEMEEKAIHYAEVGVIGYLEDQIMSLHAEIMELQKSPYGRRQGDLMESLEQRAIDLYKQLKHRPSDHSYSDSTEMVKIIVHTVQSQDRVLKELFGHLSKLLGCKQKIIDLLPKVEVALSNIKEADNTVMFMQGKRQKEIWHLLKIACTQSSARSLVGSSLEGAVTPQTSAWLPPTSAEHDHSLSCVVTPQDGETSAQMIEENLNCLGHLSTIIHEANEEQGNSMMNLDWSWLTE
Nature of the assay: kinase selectivity panel. In kind it is biochemical. Conditions: read-out: percentage of control activity (POC), IKKα. The method in brief: as §1

Assay [7] concerns Production of TNFα in THP-1 cells. Nature of the assay: p38-dependent TNF production in THP-1 cells. In kind it is cell-based.
Where [8] appears, read: Homo sapiens, THP-1, geometric mean, read-out: Activity in reference cell based assay (IC50, μM) (95% CI) Production of TNFα in THP-1 cells.
[9] abbreviates: Homo sapiens, THP-1, individual values, read-out: Cellular activity (IC50, mM) TNFa production in THP-1.

T1 sequence (Q14289 whole entry): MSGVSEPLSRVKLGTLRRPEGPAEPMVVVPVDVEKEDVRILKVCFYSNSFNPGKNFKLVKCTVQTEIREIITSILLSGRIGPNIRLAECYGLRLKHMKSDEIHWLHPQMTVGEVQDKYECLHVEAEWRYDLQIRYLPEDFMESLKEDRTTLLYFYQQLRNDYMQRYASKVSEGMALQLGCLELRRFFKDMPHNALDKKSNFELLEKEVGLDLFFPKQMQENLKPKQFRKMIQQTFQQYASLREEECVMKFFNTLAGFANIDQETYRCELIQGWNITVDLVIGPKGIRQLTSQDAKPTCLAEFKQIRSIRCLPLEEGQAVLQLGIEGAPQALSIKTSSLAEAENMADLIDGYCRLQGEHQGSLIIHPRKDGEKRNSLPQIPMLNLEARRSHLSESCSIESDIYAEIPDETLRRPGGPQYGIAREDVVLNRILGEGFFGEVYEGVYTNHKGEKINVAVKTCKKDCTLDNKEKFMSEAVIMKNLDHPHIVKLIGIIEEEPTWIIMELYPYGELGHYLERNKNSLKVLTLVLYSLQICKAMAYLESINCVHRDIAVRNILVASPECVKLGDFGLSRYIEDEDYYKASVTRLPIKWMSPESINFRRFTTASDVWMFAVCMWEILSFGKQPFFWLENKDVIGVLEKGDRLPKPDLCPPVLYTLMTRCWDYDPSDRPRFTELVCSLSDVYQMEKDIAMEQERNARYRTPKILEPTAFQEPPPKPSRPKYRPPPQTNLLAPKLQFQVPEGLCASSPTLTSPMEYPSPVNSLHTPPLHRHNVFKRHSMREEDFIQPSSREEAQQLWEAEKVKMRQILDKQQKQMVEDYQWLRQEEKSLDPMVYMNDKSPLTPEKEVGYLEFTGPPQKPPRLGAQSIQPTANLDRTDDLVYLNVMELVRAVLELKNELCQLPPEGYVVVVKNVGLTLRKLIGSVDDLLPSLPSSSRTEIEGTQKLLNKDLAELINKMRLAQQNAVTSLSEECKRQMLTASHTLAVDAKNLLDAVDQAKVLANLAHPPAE
T2 sequence (P07947 whole entry, species assumed): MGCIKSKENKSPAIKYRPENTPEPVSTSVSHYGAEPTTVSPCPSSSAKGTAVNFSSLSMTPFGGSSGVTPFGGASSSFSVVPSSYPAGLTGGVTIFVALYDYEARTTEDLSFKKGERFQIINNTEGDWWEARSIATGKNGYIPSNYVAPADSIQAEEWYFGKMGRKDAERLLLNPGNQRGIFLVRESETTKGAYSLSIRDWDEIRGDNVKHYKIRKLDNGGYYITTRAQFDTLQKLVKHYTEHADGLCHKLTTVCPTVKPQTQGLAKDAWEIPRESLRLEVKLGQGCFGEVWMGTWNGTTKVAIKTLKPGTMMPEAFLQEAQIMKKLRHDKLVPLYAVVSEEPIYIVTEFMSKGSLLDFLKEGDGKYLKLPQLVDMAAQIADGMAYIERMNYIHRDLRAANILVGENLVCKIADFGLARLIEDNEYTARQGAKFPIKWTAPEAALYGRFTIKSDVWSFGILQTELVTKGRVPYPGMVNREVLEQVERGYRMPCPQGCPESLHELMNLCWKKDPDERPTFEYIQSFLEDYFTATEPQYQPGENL

The IC50 is the concentration that inhibits the measured activity by half. With `CC(C)(C)N1CCC(c2cc(-c3ccc(F)cc3Cl)c3cc[n+]([O-])c(-c4c(Cl)cccc4Cl)c3n2)CC1` [compound 2], the “% Inhibition of mRNA at [4 μM] ± SD” value in assay [1] is 79.69 ± 4.76%. Also, the “% Inhibition of mRNA” value in assay [1] was 83.056% and 76.316%. Also, the remaining activity at 10 µM in assay [2] came out at 99%; in assay [3] (10 μM), 107%; in assay [4], 86%; in assay [5] it was 121%; in assay [6], 102%. For the same compound, the IC50 in assay [7] (setting [8]) stood at 0.0004 µM; in assay [7] (setting [9]), 0.00045 µM.

`Cc1ccc(C(=O)NCC2CC2)cc1-c1ccc2c(c1)NC(=O)C21CCCC1` [compound 3]: in assay [1], the “% Inhibition of mRNA at [4 μM] ± SD” value worked out at 80.07 ± 0.48%. Further, the “% Inhibition of mRNA” value in assay [1] was 80.414% and 79.735%. Also, the remaining activity at 10 µM in assay [2] was determined as 99%; in assay [3] (10 μM), 100%; in assay [4] it was 99%; in assay [5] it was 98%; in assay [6], 101%. Also, the IC50 in assay [7] (setting [8]) came out at 0.001 µM; in assay [7] (setting [9]) it was 0.00242 µM; in assay [7] (individual values, read-out: Cellular activity (IC50, mM) TNFa production in THP-1) it was 0.00132 µM.

One may read the inhibition as how much of the control response was suppressed. On to `Cn1cc(-c2cccc(-c3nc(C(=O)NC4C5CC6CC4CC(O)(C6)C5)c(N)nc3N)c2)cn1` (stereo not drawn) [compound 4], for which the “% Inhibition of mRNA at [4 μM] ± SD” value in assay [1] turned out to be 90.44 ± 0.24%. Further, in assay [1], the “% Inhibition of mRNA” value was 90.608% and 90.263%. The remaining activity at 10 µM in assay [2] is 86%; in assay [3] (10 μM), 23%; in assay [4] it was 85%; in assay [5], 118%; in assay [6] it was 100%. Further, the inhibition at 10 µM in assay [3] (10 μM) was found to be 77%. For the same compound, in assay [3] (biochemical dose response, duplicate, read-out: Inhibition of indicated activity (IC50, μM): Yes), the half-inhibitory concentration (IC50) stood at 2.39 µM.

In the case of `CS(=O)(=O)N1CCN(c2ccc(Nc3ncc(C(N)=O)c(NC4CC4)n3)cc2)CC1` [compound 5], the “% Inhibition of mRNA at [4 μM] ± SD” value in assay [1] is reported as 99.76 ± 0.12%. Moreover, in assay [1], the “% Inhibition of mRNA” value was 99.853% and 99.672%. The remaining activity at 10 µM in assay [2] was determined as 4%; in assay [3] (10 μM), 4%; in assay [4], 83%; in assay [5], 7%; in assay [6], 1%.

`COc1c(NC(=O)c2ccc(C)c(-c3nnc4c(NCC(C)(C)C)nccn34)c2)cc(C(C)(C)C)cc1NS(C)(=O)=O` [compound 7, reference compound]: the remaining activity at 10 µM turned out to be 87% in assay [2]; 99% in assay [3] (10 μM); 94% in assay [4]; 121% in assay [5]; 135% in assay [6]. The IC50 in assay [7] (setting [8]) and in assay [7] (setting [9]) was 0.002 µM in each case.
